Measured values reported in patent US9938322B2, “β-hairpin peptidomimetics” (priority 2013, dated 2018).
Where a SMILES comes first, the peptide text is derived from it. [ ]: non-standard residue; d: D form. The star is where a group is joined. Tic(7-OH) = O=C(O)[C@@H]1Cc2ccc(O)cc2CN1; Pro(3S-OH) = O=C(O)[C@H]1NCC[C@@H]1O; Dap(CONH2) = NC(=O)NC[C@H](N)C(=O)O; cisHyp = O=C(O)[C@@H]1C[C@H](O)CN1; Cha = N[C@@H](CC1CCCCC1)C(=O)O; Chg = N[C@H](C(=O)O)C1CCCCC1; Tle = CC(C)(C)[C@H](N)C(=O)O; Pip = O=C(O)[C@@H]1CCCCN1; dDab = NCC[C@@H](N)C(=O)O; Orn = NCCC[C@H](N)C(=O)O; Dab = NCC[C@H](N)C(=O)O; Nva = CCC[C@H](N)C(=O)O; Dap = NC[C@H](N)C(=O)O; Bn = c1ccc(C*)cc1

System: human red blood cells (hRBC)
Test: Hemolysis of human red blood cells
Assay type: cell-based
Conditions: red cells of human, 1 h, 100
Procedure, shortened: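 Washed fresh human erythrocytes (20% v/v, about 0.9×10^9 cells/ml final) incubated with peptide at 100 μg/ml for 1 h at 37° C with shaking. Supernatant OD540 read; hemolysis expressed relative to 2.5% Triton X-100 (100%) and PBS with 0.001% acetic acid (0%).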

SMILES | Hemolysis at 100 μg/ml [%]
CC[C@H](C)[C@@H]1NC(=O)[C@@H]2CCCN2C(=O)[C@H]2CCCN2C(=O)[C@H](CO)NC(=O)[C@H](C)NC(=O)[C@H](C(C)(C)C)NC(=O)[C@H](CCN)NC(=O)[C@H](Cc2c[nH]c3ccccc23)NC(=O)[C@H](CCN)NC(=O)[C@@H](CCN)NC(=O)[C@H](CCCN)NC(=O)[C@H](CCN)NC(=O)[C@H](Cc2ccc(O)cc2)NC(=O)[C@H](CO)NC1=O [compound 44] (cyclo(ISY[Dab][Orn][dDab][Dab]W[Dab][Tle]AS[dP]P)) | 2
CC(C)[C@@H]1NC(=O)[C@@H]2CCCN2C(=O)[C@H]2CCCN2C(=O)[C@H](CO)NC(=O)[C@H](C)NC(=O)[C@H](C(C)(C)C)NC(=O)[C@H](CCN)NC(=O)[C@H](Cc2c[nH]c3ccccc23)NC(=O)[C@H](CCN)NC(=O)[C@@H](CCN)NC(=O)[C@H](CCCN)NC(=O)[C@H](CCN)NC(=O)[C@H](Cc2ccc(O)cc2)NC(=O)[C@H](CO)NC1=O [compound 45] (cyclo(VSY[Dab][Orn][dDab][Dab]W[Dab][Tle]AS[dP]P)) | 2
CC(C)[C@@H]1NC(=O)[C@@H]2CCCN2C(=O)[C@H]2CCCN2C(=O)[C@H](CO)NC(=O)[C@H](C)NC(=O)[C@H](C(C)(C)C)NC(=O)[C@H](CCN)NC(=O)[C@H](Cc2c[nH]c3ccccc23)NC(=O)[C@H](CCN)NC(=O)[C@@H](CCN)NC(=O)[C@H](CCCN)NC(=O)[C@H](CCN)NC(=O)[C@H](Cc2ccc(O)cc2)NC(=O)[C@H](C)NC1=O [compound 46] (cyclo(VAY[Dab][Orn][dDab][Dab]W[Dab][Tle]AS[dP]P)) | 1
CCC[C@@H]1NC(=O)[C@@H]2CCCN2C(=O)[C@H]2CCCN2C(=O)[C@H](CO)NC(=O)[C@H](C)NC(=O)[C@H](C(C)(C)C)NC(=O)[C@H](CCN)NC(=O)[C@H](Cc2c[nH]c3ccccc23)NC(=O)[C@H](CCN)NC(=O)[C@@H](CCN)NC(=O)[C@H](CCCN)NC(=O)[C@H](CCN)NC(=O)[C@H](Cc2ccc(O)cc2)NC(=O)[C@H](CO)NC1=O [compound 47] (cyclo([Nva]SY[Dab][Orn][dDab][Dab]W[Dab][Tle]AS[dP]P)) | 1
CCC[C@@H]1NC(=O)[C@@H]2CCCN2C(=O)[C@H]2CCCN2C(=O)[C@H](CO)NC(=O)[C@H](C)NC(=O)[C@H](C(C)(C)C)NC(=O)[C@H](CCN)NC(=O)[C@H](Cc2c[nH]c3ccccc23)NC(=O)[C@H](CCN)NC(=O)[C@@H](CCN)NC(=O)[C@H](CCCN)NC(=O)[C@H](CCN)NC(=O)[C@H](Cc2ccc(O)cc2)NC(=O)[C@H](C)NC1=O [compound 48] (cyclo([Nva]AY[Dab][Orn][dDab][Dab]W[Dab][Tle]AS[dP]P)) | 1
CC(C)[C@@H]1NC(=O)[C@@H]2CCCN2C(=O)[C@H]2CCCN2C(=O)[C@H](CO)NC(=O)[C@H](C)NC(=O)[C@H](C(C)(C)C)NC(=O)[C@H](CCN)NC(=O)[C@H](Cc2c[nH]c3ccccc23)NC(=O)[C@H](CCN)NC(=O)[C@H](CCN)NC(=O)[C@H](CCCN)NC(=O)[C@H](CCN)NC(=O)[C@H](Cc2ccc(O)cc2)NC(=O)[C@H](CO)NC1=O [compound 49] (cyclo(VSY[Dab][Orn][Dab][Dab]W[Dab][Tle]AS[dP]P)) | 1
CC(C)[C@@H]1NC(=O)[C@@H]2CCCN2C(=O)[C@H]2CCCN2C(=O)[C@H](CO)NC(=O)[C@H](C)NC(=O)[C@H](C(C)(C)C)NC(=O)[C@H](CCN)NC(=O)[C@H](Cc2c[nH]c3ccccc23)NC(=O)[C@H](CCN)NC(=O)[C@@H](CCN)NC(=O)[C@H](CCCN)NC(=O)[C@H](CCN)NC(=O)[C@H](CC2CCCCC2)NC(=O)[C@H](CO)NC1=O [compound 50] (cyclo(VS[Cha][Dab][Orn][dDab][Dab]W[Dab][Tle]AS[dP]P)) | 4
CC(C)[C@@H]1NC(=O)[C@@H]2CCCN2C(=O)[C@H]2CCCN2C(=O)[C@H](CO)NC(=O)[C@H](C)NC(=O)[C@H](C(C)(C)C)NC(=O)[C@H](CCN)NC(=O)[C@H](Cc2c[nH]c3ccccc23)NC(=O)[C@H](CCN)NC(=O)[C@@H](CCN)NC(=O)[C@H](CCCN)NC(=O)[C@H](CCN)NC(=O)[C@H](CC2CCCCC2)NC(=O)[C@H](C)NC1=O [compound 51] (cyclo(VA[Cha][Dab][Orn][dDab][Dab]W[Dab][Tle]AS[dP]P)) | 1
CC(C)[C@@H]1NC(=O)[C@@H]2[C@@H](O)CCN2C(=O)[C@H]2CCCN2C(=O)[C@H](CO)NC(=O)[C@H](C)NC(=O)[C@H](C(C)(C)C)NC(=O)[C@H](CCN)NC(=O)[C@H](Cc2c[nH]c3ccccc23)NC(=O)[C@H](CCN)NC(=O)[C@@H](CCN)NC(=O)[C@H](CCCN)NC(=O)[C@H](CCN)NC(=O)[C@H](Cc2ccc(O)cc2)NC(=O)[C@H](CO)NC1=O [compound 56] (cyclo(AS[dP][Pro(3S-OH)]VSY[Dab][Orn][dDab][Dab]W[Dab][Tle])) | 1
CC(C)C[C@@H]1NC(=O)[C@@H]2[C@@H](O)CCN2C(=O)[C@H]2CCCN2C(=O)[C@H](CO)NC(=O)[C@H](C)NC(=O)[C@H](C(C)(C)C)NC(=O)[C@H](CCN)NC(=O)[C@H](Cc2c[nH]c3ccccc23)NC(=O)[C@H](CCN)NC(=O)[C@@H](CCN)NC(=O)[C@H](CCCN)NC(=O)[C@H](CCN)NC(=O)[C@H](Cc2ccc(O)cc2)NC(=O)[C@H](CO)NC1=O [compound 57] (cyclo(AS[dP][Pro(3S-OH)]LSY[Dab][Orn][dDab][Dab]W[Dab][Tle])) | 1
CC(C)C[C@@H]1NC(=O)[C@@H]2[C@@H](O)CCN2C(=O)[C@H]2CCCN2C(=O)[C@H](CO)NC(=O)[C@H](C)NC(=O)[C@H](C(C)(C)C)NC(=O)[C@H](CCN)NC(=O)[C@H](Cc2c[nH]c3ccccc23)NC(=O)[C@H](CCN)NC(=O)[C@@H](CCN)NC(=O)[C@H](CCCN)NC(=O)[C@H](CCN)NC(=O)[C@H](CC2CCCCC2)NC(=O)[C@H](CO)NC1=O [compound 58] (cyclo(AS[dP][Pro(3S-OH)]LS[Cha][Dab][Orn][dDab][Dab]W[Dab][Tle])) | 1
CC(C)C[C@@H]1NC(=O)[C@@H]2[C@@H](O)CCN2C(=O)[C@H]2CCCN2C(=O)[C@H](CO)NC(=O)[C@H](CNC(N)=O)NC(=O)[C@H](C(C)(C)C)NC(=O)[C@H](CCN)NC(=O)[C@H](Cc2c[nH]c3ccccc23)NC(=O)[C@H](CCN)NC(=O)[C@@H](CCN)NC(=O)[C@H](CCCN)NC(=O)[C@H](CCN)NC(=O)[C@H](CC2CCCCC2)NC(=O)[C@H](CO)NC1=O [compound 59] (cyclo([Cha][Dab][Orn][dDab][Dab]W[Dab][Tle][Dap(CONH2)]S[dP][Pro(3S-OH)]LS)) | 1
CC(C)C[C@@H]1NC(=O)[C@@H]2[C@@H](O)CCN2C(=O)[C@H]2CCCN2C(=O)[C@H](CO)NC(=O)[C@H](CNC(N)=O)NC(=O)[C@H](C(C)(C)C)NC(=O)[C@H](CCN)NC(=O)[C@H](Cc2c[nH]c3ccccc23)NC(=O)[C@H](CCN)NC(=O)[C@@H](CCN)NC(=O)[C@H](CCCN)NC(=O)[C@H](CCN)NC(=O)[C@H](CC2CCCCC2)NC(=O)[C@H](C)NC1=O [compound 60] (cyclo(LA[Cha][Dab][Orn][dDab][Dab]W[Dab][Tle][Dap(CONH2)]S[dP][Pro(3S-OH)])) | 1
C[C@@H]1NC(=O)[C@H](C(C)(C)C)NC(=O)[C@H](CCN)NC(=O)[C@H](Cc2c[nH]c3ccccc23)NC(=O)[C@H](CCN)NC(=O)[C@@H](CCN)NC(=O)[C@H](CCCN)NC(=O)[C@H](CCN)NC(=O)[C@H](CC2CCCCC2)NC(=O)[C@H](CN)NC(=O)[C@H](Cc2c[nH]c3ccccc23)NC(=O)[C@@H]2Cc3ccc(O)cc3CN2C(=O)[C@H]2CCCN2C(=O)[C@H](CO)NC1=O [compound 61] (cyclo(AS[dP][Tic(7-OH)]W[Dap][Cha][Dab][Orn][dDab][Dab]W[Dab][Tle])) | 2
C[C@@H]1NC(=O)[C@H](C(C)(C)C)NC(=O)[C@H](CCN)NC(=O)[C@H](Cc2c[nH]c3ccccc23)NC(=O)[C@H](CCN)NC(=O)[C@@H](CCN)NC(=O)[C@H](CCCN)NC(=O)[C@H](CCN)NC(=O)[C@H](CC2CCCCC2)NC(=O)[C@H](CN)NC(=O)[C@H](Cc2c[nH]c3ccccc23)NC(=O)[C@@H]2CCCCN2C(=O)[C@H]2CCCN2C(=O)[C@H](CO)NC1=O [compound 63] (cyclo(AS[dP][Pip]W[Dap][Cha][Dab][Orn][dDab][Dab]W[Dab][Tle])) | 3
C[C@@H]1NC(=O)[C@H](Cc2c[nH]c3ccccc23)NC(=O)[C@@H]2C[C@H](OCc3ccccc3)CN2C(=O)[C@H]2CCCN2C(=O)[C@H](CO)NC(=O)[C@H](C)NC(=O)[C@H](C(C)(C)C)NC(=O)[C@H](CCN)NC(=O)[C@H](Cc2c[nH]c3ccccc23)NC(=O)[C@H](CCN)NC(=O)[C@H](CCN)NC(=O)[C@H](CCCN)NC(=O)[C@H](CCN)NC(=O)[C@H](CC2CCCCC2)NC1=O [compound 64] (cyclo(WA[Cha][Dab][Orn][Dab][Dab]W[Dab][Tle]AS[dP][cisHyp](Bn))) | 3
C[C@@H]1NC(=O)[C@H](Cc2c[nH]c3ccccc23)NC(=O)[C@@H]2[C@@H](O)CCN2C(=O)[C@H]2CCCN2C(=O)[C@H](CO)NC(=O)[C@H](CO)NC(=O)[C@H](C(C)(C)C)NC(=O)[C@H](CCN)NC(=O)[C@H](Cc2c[nH]c3ccccc23)NC(=O)[C@H](CCN)NC(=O)[C@@H](CCN)NC(=O)[C@H](CCCN)NC(=O)[C@H](CCN)NC(=O)[C@H](C2CCCCC2)NC1=O [compound 65] (cyclo(WA[Chg][Dab][Orn][dDab][Dab]W[Dab][Tle]SS[dP][Pro(3S-OH)])) | 3.5
C[C@@H]1NC(=O)[C@H](CC2CCCCC2)NC(=O)[C@H](CCN)NC(=O)[C@H](Cc2c[nH]c3ccccc23)NC(=O)[C@H](CCN)NC(=O)[C@@H](CCN)NC(=O)[C@H](CCCN)NC(=O)[C@H](CCN)NC(=O)[C@H](C(C)(C)C)NC(=O)[C@H](CO)NC(=O)[C@H](Cc2ccc(O)cc2)NC(=O)[C@@H]2CCCN2C(=O)[C@H]2CCCN2C(=O)[C@H](CO)NC1=O [compound 66] (cyclo(YS[Tle][Dab][Orn][dDab][Dab]W[Dab][Cha]AS[dP]P)) | 4
